Measurements taken from PMC3933693, “Novel Inhibitors of Mitochondrial sn-Glycerol 3-phosphate Dehydrogenase” (PLoS ONE, 2014).

Tests used:
cortical synaptosomes = test: Synaptosomal respiration (Seahorse XF24); type: cell-based, mouse; settings: 100 µM iGP-1, 0.5 mM aminooxyacetate
Description: Synaptosomal respiration was tested in the Seahorse XF24 using published protocols, [41]. Synaptosomes (20 or 25 µg protein) were attached to polyethyleneimine and Geltrex-coated Seahorse plates by centrifugation in ionic medium, [41] containing 10 mM glucose. Attachment buffer was carefully replaced with ionic buffer containing DMSO, 100 µM iGP-1, 0.5 mM aminooxyacetate, or iGP-1 with aminooxyacetate, and either 10 mM pyruvate or 15 mM glucose. Plates were equilibrated for 20 min at 37°C then loaded into the instrument followed by measurement of basal respiration and injection of 5 µM FCCP (to induce maximal, uncoupled respiration) with 4 µg ⋅ mL^−1 oligomycin (to prevent compensatory reversal of ATP synthase). In some experiments, 10 mM oxamate was added with the FCCP/oligomycin to minimize regeneration of cytosolic NAD^+ by lactate dehydrogenase. Inhibition of the malate-aspartate shuttle was defined as the difference between maximal rates ± aminooxyacetate, expressed as % of control. Inhibition of the glycerol phosphate shuttle was the difference between maximal rates with aminooxyacetate ± iGP-1, as % of control.

[1] = test system: ubiquinone-binding site of complex I (site IQ); test: Site-specific H2O2 production from site IQ in skeletal muscle mitochondria; type: biochemical, rat;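 further: H2O2 from superoxide detected by Amplex UltraRed fluorescence with added superoxide dismutase and horseradish peroxidase, endpoint read 30–40 min after substrate addition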
STHdhQ7 cells = test: Live cell imaging of iGP-1 fluorescence (ability to cross cellular membranes); type: cell-based; settings: 100 µM; intrinsic fluorescence in live cells
Description: The ability of iGP-1 to cross cellular membranes was evaluated in STHdhQ7 cells cultured at 33°C as described. Cells were seeded on collagen-coated, Lab-Tek chambered coverglass (Nunc) 48 h before use. Prior to imaging, cells were cultured for 45 min with 65 nM LysoTracker Red ±250 nM bafilomycin A1. Medium was then replaced with imaging buffer (120 mM NaCl, 3.5 mM KCl, 0.4 mM KH2PO4, 20 mM TES, 5 mM NaHCO3, 1.2 mM Na2SO4, 1.5 mM CaCl2, 0.5 mM MgCl2, 2 mM Glucose, and 0.2% BSA, pH 7.4) containing DMSO, 250 nM bafilomycin A1 or 100 µM iGP-1. Cells were imaged on a Nikon Eclipse Ti-PFS inverted microscope equipped with a Cascade 512B camera (Photometrics, Tucson, AZ), a Plan Fluor 100X/1.3 oil objective, an LB-LS17 Xe-arc light source (attenuated), 10–3 excitation and emission filter wheels (Sutter Instruments, Novato, CA), and an MS-2000 linear encoded motorized stage (ASI, Eugene, OR). The filter sets, given as excitation, dichroic mirror, emission in nm/bandwidth, were, for iGP-1 (1 s exposure), 340/26, 409, 460/80 and for LysoTracker Red (100 ms exposure), 543/22, 562, 588/21 (all from Semrock, Rochester, NY). Image acquisition was controlled by NIS Elements 4.0 (Nikon, Melville, NY). Images of cell-free wells containing buffer with DMSO or iGP-1 were used for background subtraction in Image Analyst MKII (Novato, CA).

[2] = test system: flavin mononucleotide site of complex I (site IF) plus matrix NAD-linked dehydrogenases (site IF/DH); test: Site-specific H2O2 production from site IF/DH in skeletal muscle mitochondria; type: biochemical, rat; settings: primary screen, ∼2.5 µM, average of duplicates
Outline: (§1)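 Isolated rat skeletal muscle mitochondria; H2O2 read by Amplex UltraRed with added SOD and HRP. Site IF/DH: 5 mM glutamate, 5 mM malate, 4 µM rotenone. Site IIF: palmitoylcarnitine or succinate with rotenone/antimycin A/myxothiazol. Site IIIQo: succinate, rotenone, antimycin A. Screen at 2.5 µM, normalised as % change from DMSO.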

[3] = target: T1, outer ubiquinone-binding site of complex III (site IIIQo) (Rattus norvegicus, UniProt P00159+P20788); test: Site-specific H2O2 production from site IIIQo in skeletal muscle mitochondria; type: biochemical; settings: primary screen, ∼2.5 µM, average of duplicates; 5 mM succinate
T1 construct: from tissue; host or cells: skeletal muscle mitochondria
Outline: as §1

[4] = test system: skeletal muscle mitochondria; test: Mitochondrial membrane potential (ΔΨm, TMRM) powered by glycerol phosphate; type: biochemical, rat

For `O=C(O)CCC(=O)Nc1ccc(-c2nc3ccccc3[nH]2)cc1` [iGP-1], the “effect on basal or maximal respiration with pyruvate” value (cortical synaptosomes; 10 mM pyruvate) was “no effect”, the “effect on basal and maximal respiration with glucose” value (cortical synaptosomes; 15 mM glucose, no oxamate) was “no effect” and the “IQ H2O2 production with 5 mM Suc (% change at 80 μM)” value ([1]; 80 μM, 5 mM succinate) was -9%. The “concentration above which H2O2 production by site IQ starts to be inhibited” value ([1]; Fig. 6B) was “above 10 µM”, the “IQ (% change from DMSO)” value ([1]; primary screen, ∼2.5 µM, average of duplicates, 5 mM succinate) was 1.0% and the “cell permeability” value (STHdhQ7 cells) was “readily crosses cellular membranes”. The “IF/DH (% change from DMSO)” value [2] was 4.1%, the “IIIQo (% change from DMSO)” value [3] was -0.246% and the “ΔΨm with GP + Nig (% change at 80 μM)” value ([4]; 80 μM, 16.7 mM glycerol phosphate, 4 µM rotenone, nigericin) was -20%. The “effect on ΔΨm powered by glycerol phosphate” value ([4]; 8, 25, and 80 µM) was “significantly decreased”.
